Data on 17 compounds can be found in US10251394B2, “Molecules having pesticidal utility, and intermediates, compositions, and processes, related thereto” (Dow AgroSciences LLC, priority 2016, dated 2019).

What all share (format): in vivo
The subject of experiment [1] is Beet Armyworm (Spodoptera exigua). The experiment is described as follows: Bioassay on Beet Armyworm (BAW), 128-well diet tray assay. The note with it: Beet Armyworm, Table ABC, read-out: BAW rating. In outline: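 Percent mortality, averaged over eight wells, was scored after five to seven days at 25° C under 14:10 light-dark. Each well's diet carried 50 μg/cm^2 of test molecule applied in acetone-water (90:10) and dried before one to five second-instar larvae were added.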

For experiment [2], the system named is Yellow Fever Mosquito (Aedes aegypti). The experiment is described as follows: Bioassay on Yellow Fever Mosquito (YFM) larvae, 96-well plate. The note with it: Table ABC. The procedure:
Example C: Bioassays on Yellow Fever Mosquito (Aedes Aegypti, AEDSAE) (“YFM”)
Certain molecules disclosed in this document were tested against YFM using procedures described in the following paragraph. In the reporting of the results, the “GPA & YFM Rating Table” was used (See Table Section).
Master plates containing 400 μg of a molecule dissolved in 100 μL of dimethyl sulfoxide (DMSO) (equivalent to a 4000 ppm solution) are used. A master plate of assembled molecules contains 15 μL per well. To this plate, 135 μL of a 90:10 water:acetone mixture is added to each well. A robot (Biomek® NXP Laboratory Automation Workstation) is programmed to dispense 15 μL aspirations from the master plate into an empty 96-well shallow plate (“daughter” plate). There are 6 reps (“daughter” plates) created per master. The created daughter plates are then immediately infested with YFM larvae.
The day before plates are to be treated, mosquito eggs are placed in Millipore water containing liver powder to begin hatching (4 g. into 400 mL). After the daughter plates are created using the robot, they are infested with 220 μL of the liver powder/larval mosquito mixture (about 1 day-old larvae). After plates are infested with mosquito larvae, a non-evaporative lid is used to cover the plate to reduce drying. Plates are held at room temperature for 3 days prior to grading. After 3 days, each well is observed and scored based on mortality. The results are indicated in the table entitled “Table ABC: Biological Results” (See Table Section).

Experiment [3] deals with Cabbage Looper (Trichoplusia ni). As to the kind of experiment: Bioassay on Cabbage Looper (CL), 128-well diet tray assay. The note with it: Cabbage Looper, Table ABC, read-out: CL rating. In outline:
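Mortality after five to seven days at 25° C (14:10 photoperiod), averaged over eight wells per compound. Diet in each well carried 50 μg/cm^2 of dried test molecule and received one to five second-instar larvae.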

Molecules are shown by their SMILES.

`O=C(CNC(=O)c1ccc(/C(F)=C/C(c2cc(F)cc(Cl)c2)C(F)(F)F)cc1C(F)(F)F)NCC(F)(F)F` (stereo not drawn) [F157, (Z)-4-(3-(3-Chloro-5-fluorophenyl)-1,4,4,4-tetrafluorobut-1-en-1-yl)-N-(2-oxo-2-((2,2,2-trifluoroethyl)amino)ethyl)-2-(trifluoromethyl)benzamide]: the pest or weed control at 50 µg/cm2 in experiment [1] and in experiment [3] was 50 to 100% in each case. The YFM rating result in experiment [2] is listed as “A (80-100)”.

As for `C[C@@H](NC(=O)c1ccc(/C(F)=C/C(c2ccc(Br)c(Br)c2)C(F)(F)F)cc1C(F)(F)F)C(=O)N(C)CC(F)(F)F` (stereo partly drawn) [PF2, 4-((Z)-3-(3,4-Dibromophenyl)-1,4,4,4-tetrafluoro-but-1-en-1-yl)-N—((R)-1-(methyl(2,2,2-trifluoroethyl)amino)-1-oxopropan-2-yl)-2-(trifluoromethyl)benzamide], the pest or weed control at 50 µg/cm2 in experiment [1] and in experiment [3] was 50 to 100% each time. The YFM rating result in experiment [2] is reported as “A (80-100)”.

As for `O=C(CNC(=O)c1ccc(/C(F)=C/C(c2cc(Cl)c(F)c(Cl)c2)C(F)(F)F)cc1C(F)(F)F)NCC(F)(F)F` (stereo not drawn) [F38, (Z)-4-(3-(3,5-Dichloro-4-fluorophenyl)-1,4,4,4-tetrafluorobut-1-en-1-yl)-N-(2-oxo-2-((2,2,2-trifluoroethyl)amino)ethyl)-2-(trifluoromethyl)benzamide], the pest or weed control at 50 µg/cm2 in experiment [1] and in experiment [3] was 50 to 100% in each case. For the same compound, the YFM rating result in experiment [2] was “A (80-100)”.

On to `C[C@@H](NC(=O)c1ccc(/C(F)=C/C(c2cc(Br)cc(Br)c2)C(F)(F)F)cc1C(F)(F)F)C(=O)NCC(F)(F)F` (stereo partly drawn) [F33, 4-((Z)-3-(3,5-Dibromophenyl)-1,4,4,4-tetrafluorobut-1-en-1-yl)-N—((R)-1-oxo-1-((2,2,2-trifluoroethyl)amino)propan-2-yl)-2-(trifluoromethyl)benzamide], for which the pest or weed control at 50 µg/cm2 in experiment [1] and in experiment [3] was 50 to 100% throughout. Further, the YFM rating entry in experiment [2] is “A (80-100)”.

Turning to `CN(CC(F)(F)F)C(=O)CNC(=O)c1ccc(/C(F)=C/C(c2ccc(Cl)c(F)c2)C(F)(F)F)cc1C(F)(F)F` (stereo not drawn) [PF18, (Z)-4-(3-(4-Chloro-3-fluorophenyl)-1,4,4,4-tetrafluorobut-1-en-1-yl)-N-(2-(methyl(2,2,2-trifluoroethyl)amino)-2-oxoethyl)-2-(trifluoromethyl)benzamide], the pest or weed control at 50 µg/cm2 in experiment [1] and in experiment [3] was 50 to 100% throughout. In experiment [2], the YFM rating entry is listed as “B (More than 0-Less than 80)”.

As for `CN(CC(F)(F)F)C(=O)CN(C)C(=O)c1ccc(/C(F)=C/C(c2cc(Cl)c(Cl)c(Cl)c2)C(F)(F)F)cc1C(F)(F)F` (stereo not drawn) [F99, (Z)—N-Methyl-N-(2-(methyl(2,2,2-trifluoroethyl)amino)-2-oxoethyl)-4-(1,4,4,4-tetrafluoro-3-(3,4,5-trichlorophenyl)but-1-en-1-yl)-2-(trifluoromethyl)benzamide], the pest or weed control at 50 µg/cm2 in experiment [1] and in experiment [3] was 50 to 100% each time. The YFM rating result in experiment [2] was “A (80-100)”.

Consider `Cc1cc(C(/C=C(\F)c2ccc(C(=O)NCC(=O)N(C)CC(F)(F)F)c(C(F)(F)F)c2)C(F)(F)F)cc(Cl)c1Cl` (stereo not drawn) [PF12, (Z)-4-(3-(3,4-Dichloro-5-methylphenyl)-1,4,4,4-tetrafluoro-but-1-en-1-yl)-N-(2-(methyl(2,2,2-trifluoroethyl)amino)-2-oxoethyl)-2-(trifluoromethyl)benzamide], for which the pest or weed control at 50 µg/cm2 in experiment [1] and in experiment [3] was 50 to 100% in each case. The YFM rating result in experiment [2] is “B (More than 0-Less than 80)”.

Turning to `C[C@@H](NC(=O)c1ccc(/C(F)=C/C(c2cc(Cl)c(C(F)F)c(Cl)c2)C(F)(F)F)cc1C(F)(F)F)C(=O)NCC(F)(F)F` (stereo partly drawn) [F142, 4-((Z)-3-(3,5-Dichloro-4-(difluoromethyl)phenyl)-1,4,4,4-tetrafluorobut-1-en-1-yl)-N—((R)-1-oxo-1-((2,2,2-trifluoroethyl)amino)propan-2-yl)-2-(trifluoromethyl)benzamide], the pest or weed control at 50 µg/cm2 in experiment [1] and in experiment [3] was 50 to 100% in each case. The YFM rating result in experiment [2] is “A (80-100)”.

For `COc1ccc(C(/C=C(\F)c2ccc(C(=O)N[C@H](C)C(=O)NCC(F)(F)F)c(C(F)(F)F)c2)C(F)(F)F)cc1Cl` (stereo partly drawn) [F161, 4-((Z)-3-(3-Chloro-4-methoxyphenyl)-1,4,4,4-tetrafluorobut-1-en-1-yl)-N—((R)-1-oxo-1-((2,2,2-trifluoroethyl)amino)propan-2-yl)-2-(trifluoromethyl)benzamide], the pest or weed control at 50 µg/cm2 in experiment [1] and in experiment [3] was 50 to 100% each time. For the same compound, in experiment [2], the YFM rating entry is recorded as “A (80-100)”.

Take `C/C=C/c1c(Cl)cc(C(/C=C(\F)c2ccc(C(=O)N[C@H](C)C(=O)NCC(F)(F)F)c(C(F)(F)F)c2)C(F)(F)F)cc1Cl` (stereo partly drawn) [F147, 4-((Z)-3-(3,5-Dichloro-4-((E)-prop-1-en-1-yl)phenyl)-1,4,4,4-tetrafluorobut-1-en-1-yl)-N—((R)-1-oxo-1-((2,2,2-trifluoroethyl)amino)propan-2-yl)-2-(trifluoromethyl)benzamide]: the pest or weed control at 50 µg/cm2 in experiment [1] and in experiment [3] was 50 to 100% in each case. Moreover, the YFM rating result in experiment [2] is recorded as “A (80-100)”.

Take `CN(CC(F)(F)F)C(=O)CNC(=O)c1ccc(/C(F)=C/C(c2cc(Br)cc(Br)c2)C(F)(F)F)cc1C(F)(F)F` (stereo not drawn) [F84, (Z)-4-(3-(3,5-Dibromophenyl)-1,4,4,4-tetrafluorobut-1-en-1-yl)-N-(2-(methyl(2,2,2-trifluoroethyl)amino)-2-oxoethyl)-2-(trifluoromethyl)benzamide]: the pest or weed control at 50 µg/cm2 in experiment [1] and in experiment [3] was 50 to 100% each time. Besides, the YFM rating entry in experiment [2] was “A (80-100)”.

With `CN(CC(F)(F)F)C(=O)CNC(=O)c1ccc(/C(F)=C/C(c2cc(Cl)c(F)c(Cl)c2)C(F)(F)F)cc1C(F)(F)F` (stereo not drawn) [F82, (Z)-4-(3-(3,5-Dichloro-4-fluorophenyl)-1,4,4,4-tetrafluorobut-1-en-1-yl)-N-(2-(methyl(2,2,2-trifluoroethyl)amino)-2-oxoethyl)-2-(trifluoromethyl)benzamide], the pest or weed control at 50 µg/cm2 in experiment [1] and in experiment [3] was 50 to 100% throughout. The YFM rating entry in experiment [2] is on record as “A (80-100)”.

Turning to `C[C@@H](NC(=O)c1ccc(/C(F)=C/C(c2ccc(Cl)c(Cl)c2)C(F)(F)F)cc1C(F)(F)F)C(=O)NCC(F)(F)F` (stereo partly drawn) [F42, 4-((Z)-3-(3,4-Dichlorophenyl)-1,4,4,4-tetrafluorobut-1-en-1-yl)-N—((R)-1-oxo-1-((2,2,2-trifluoroethyl)amino)propan-2-yl)-2-(trifluoromethyl)benzamide], the pest or weed control at 50 µg/cm2 in experiment [1] and in experiment [3] was 50 to 100% throughout. Also, the YFM rating result in experiment [2] is “A (80-100)”.

For the compound `CN(CC(F)(F)F)C(=O)C1(NC(=O)c2ccc(/C(F)=C/C(c3cc(Br)c(Cl)c(Br)c3)C(F)(F)F)cc2C(F)(F)F)CC1` (stereo not drawn) [F118, (Z)-4-(3-(4-Dibromo-4-chlorophenyl)-1,4,4,4-tetrafluorobut-1-en-1-yl)-N-(1-(methyl(2,2,2-trifluoroethyl)carbamoyl)cyclopropyl)-2-(trifluoromethyl)benzamide], the pest or weed control at 50 µg/cm2 in experiment [1] and in experiment [3] was 50 to 100% in each case. For the same compound, the YFM rating entry in experiment [2] was “B (More than 0-Less than 80)”.

For the compound `CCN1OC[C@@H](NC(=O)c2ccc(/C(F)=C/C(c3cc(Cl)c(Cl)c(Cl)c3)C(F)(F)F)cc2C(F)(F)F)C1=O` (stereo partly drawn) [F53, N—((R)-2-Ethyl-3-oxoisoxazolidin-4-yl)-4-((Z)-1,4,4,4-tetrafluoro-3-(3,4,5-trichlorophenyl)but-1-en-1-yl)-2-(trifluoromethyl)benzamide], the pest or weed control at 50 µg/cm2 in experiment [1] and in experiment [3] was 50 to 100% in each case. Moreover, the YFM rating result in experiment [2] is given as “A (80-100)”.

On to `C=Cc1c(Cl)cc(C(/C=C(\F)c2ccc(C(=O)NCC(=O)NCC(F)(F)F)c(C(F)(F)F)c2)C(F)(F)F)cc1Cl` (stereo not drawn) [F61, (Z)-4-(3-(3,5-Dichloro-4-vinylphenyl)-1,4,4,4-tetrafluorobut-1-en-1-yl)-N-(2-oxo-2-((2,2,2-trifluoroethyl)amino)ethyl)-2-(trifluoromethyl)benzamide], for which the pest or weed control at 50 µg/cm2 in experiment [1] and in experiment [3] was 50 to 100% in each case. The YFM rating entry in experiment [2] is “A (80-100)”.

Turning to `O=C(NC1(C(=O)NCC(F)(F)F)CC1)c1ccc(/C(F)=C/C(c2cc(Br)cc(Br)c2)C(F)(F)F)cc1C(F)(F)F` (stereo not drawn) [F34, (Z)-4-(3-(3,5-dibromophenyl)-1,4,4,4-tetrafluorobut-1-en-1-yl)-N-(1-((2,2,2-trifluoroethyl)carbamoyl)cyclopropyl)-2-(trifluoromethyl)benzamide], the pest or weed control at 50 µg/cm2 in experiment [1] and in experiment [3] was 50 to 100% each time. For the same compound, the YFM rating entry in experiment [2] is given as “A (80-100)”.
